Patent US6864217B2, “Herbicidal compositions with substituted phenylsulfonylureas for controlling weeds in rice” (Hoechst Schering AgrEvo GmbH, priority 1998, dated 2005)
Where a name gives a salt, the structure may show the parent alone. Read-outs that look alike come from different tables or passages of the source.

Key:
Cucumis dipsaceus = test: Table 1: weed control by A1*), safener C3-1) and combination; type: in vivo
Procedure: (§1) The examples mentioned below were carried out in the greenhouse, and in some instances, in field trials.

Echinochloa crusgalli [1] = test: Table 6 field trial, treatment at the 1-2 leaf stage: weed control; type: in vivo; settings: 2 g of ai/ha, 28 days after application
Procedure: as §1

Marsilea crenata = test: Table 7 field trial, treatment at the 1-2 leaf stage: weed control; type: in vivo; settings: 2 g of ai/ha, 28 days after application
Procedure: as §1

Echinochloa crusgalli [2] = test: Table 8 greenhouse trial, treatment at the 1-2 leaf stage: weed control; type: in vivo; settings: 22 days after application
Description: Seeds or rhizome pieces of mono- and dicotyledonous weed plants are placed into sandy loam soil in plastic pots, covered with soil and grown in a greenhouse under good growth conditions (temperature, atmospheric humidity, water supply). Weeds which are encountered in the cultivation of rice are cultivated in pots in which the water level is up to 2 cm over the soil surface. […] The active compound combinations according to the invention, formulated as wettable powders or emulsion concentrates, and, in parallel experiments, the correspondingly formulated individual active compounds are sprayed onto the green parts of the plants at different dosages using an amount of water of 300 to 600 l/ha (converted), and, after about 3 to 4 weeks of the test plants in the greenhouse under optimum growth conditions (temperature, atmospheric humidity, water supply), the effect of the preparations is evaluated visually in comparison to untreated controls. In the case of rice or weeds which are encountered in the cultivation of rice, the active compounds are also added directly to the water for irrigation (application analogous to the so-called granules application) or sprayed onto plants and added to the water for irrigation. The experiments were designed with several, up to five, repetitions. The herbicidal compositions according to the invention also have good herbicidal post-emergence activity against a broad spectrum of economically important weed grasses and broad-leaved weeds.

Oryza sativa [3] = settings: in vivo
Procedure: Seeds or rhizome pieces of mono- and dicotyledonous weed plants are placed into sandy loam soil in plastic pots, covered with soil and grown in a greenhouse under good growth conditions (temperature, atmospheric humidity, water supply). Weeds which are encountered in the cultivation of rice are cultivated in pots in which the water level is up to 2 cm over the soil surface. Three weeks after sowing, the test plants are treated at the three-leaf stage. The active compound combinations according to the invention, formulated as wettable powders or emulsion concentrates, and, in parallel experiments, the correspondingly formulated individual active compounds are sprayed onto the green parts of the plants at different dosages using an amount of water of 300 to 600 l/ha (converted), and, after about 3 to 4 weeks of the test plants in the greenhouse under optimum growth conditions (temperature, atmospheric humidity, water supply), the effect of the preparations is evaluated visually in comparison to untreated controls. In the case of rice or weeds which are encountered in the cultivation of rice, the active compounds are also added directly to the water for irrigation (application analogous to the so-called granules application) or sprayed onto plants and added to the water for irrigation. The experiments were designed with several, up to five, repetitions. […]

Sagittaria pygmaea = test: Table 14 greenhouse trial, treatment at the 3-4 leaf stage: weed control; type: in vivo; settings: 21 days after application
Procedure: Seeds or rhizome pieces of mono- and dicotyledonous weed plants are placed into sandy loam soil in plastic pots, covered with soil and grown in a greenhouse under good growth conditions (temperature, atmospheric humidity, water supply). Weeds which are encountered in the cultivation of rice are cultivated in pots in which the water level is up to 2 cm over the soil surface. Three weeks after sowing, the test plants are treated at the three-leaf stage. The active compound combinations according to the invention, formulated as wettable powders or emulsion concentrates, and, in parallel experiments, the correspondingly formulated individual active compounds are sprayed onto the green parts of the plants at different dosages using an amount of water of 300 to 600 l/ha (converted), and, after about 3 to 4 weeks of the test plants in the greenhouse under optimum growth conditions (temperature, atmospheric humidity, water supply), the effect of the preparations is evaluated visually in comparison to untreated controls. In the case of rice or weeds which are encountered in the cultivation of rice, the active compounds are also added directly to the water for irrigation (application analogous to the so-called granules application) or sprayed onto plants and added to the water for irrigation. The experiments were designed with several, up to five, repetitions. The herbicidal compositions according to the invention also have good herbicidal post-emergence activity against a broad spectrum of economically important weed grasses and broad-leaved weeds.
Greenhouse trial: Treatment at the 3-4 leaf stage, evaluation 21 days after the application.

Oryza sativa [4] = test: Table 24 field trial, treatment by the pre-emergence method: rice damage; type: in vivo; settings: field trial, pre-emergence method, 53 days after application
Description: Field trial: Treatment by the pre-emergence method, evaluation 53 days after the application.

Oryza sativa [5] = test: Table 2a field trial, treatment at the 1-2 leaf stage rice: rice damage; settings: 28 days after application
Procedure: as §1

COC(=O)c1ccc(I)cc1S(=O)(=O)NC(=O)Nc1nc(C)nc(OC)n1 [A1*), Sodium salt of methyl 4-iodo-2-[3-(4-methoxy-6-methyl-1,3,5-triazin-2-yl)ureidosulfonyl]benzoate]
CUMDI % control (Cucumis dipsaceus; 1.25 g of ai/ha): 60% | CUMDI % control (Cucumis dipsaceus; 2.5 g of ai/ha): 80% | ECHCG % control (Echinochloa crusgalli [1]): 10% | MASCR % control (Marsilea crenata): 33% | ECHCG % control (Echinochloa crusgalli [2]; 1.5 g of ai/ha): 40% | ECHCG % control (Echinochloa crusgalli [2]; 3 g of ai/ha): 60% | ORYSW % damage (Oryza sativa [3]): 10% | SAGPY % control (Sagittaria pygmaea; 1.5 g of ai/ha): 30% | SAGPY % control (Sagittaria pygmaea; 3 g of ai/ha): 50% | ORYSW % damage (Oryza sativa [4]; 2.5 g of ai/ha): 0% | ORYSW % damage (Oryza sativa [4]; 5 g of ai/ha): 0% | ORYSW % damage (Oryza sativa [5]; 1.25 g of ai/ha): 10% | ORYSW % damage (Oryza sativa [5]; 2.5 g of ai/ha): 25% | ORYSW % damage (Oryza sativa [5]; 5 g of ai/ha): 25%
